Experimental findings from ChEMBL document CHEMBL1201862, “PubChem BioAssay data set” (2004) are described below.

The structures appear in SMILES notation.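 Briefly, cells in 96-well plates were exposed to five compound concentrations for 48 h, and endpoints were estimated by linear interpolation. GI50 marks 50% less growth.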 Active and inactive are the calls of the source. No stated cut-off is given here; in the data, active = GI50 up to about 1.1 µM and inactive = higher. Some results are limits rather than exact numbers.

Among the test systems are LOX IMVI; A549; HOP-62; ACHN; OVCAR-5; OVCAR-8; MOLT-4; TK-10; NCI-H226; Hs-578T; IGROV-1; SN12C; MDA-N; U-251; MCF7; RXF 393; NCI-H23; SF-268; SK-MEL-5; COLO 205.
Holding throughout (assay): growth of human tumour cells (NCI), 48 h

For the molecule `Cc1c[nH]c(C(=O)O)c1-c1cccn1-c1ccc(Cl)cc1[N+](=O)[O-]`, the GI50 in the experiment on LOX IMVI was > 100 µM (inactive); in the experiment with A549 it was 83.4 µM (inactive); in the experiment on HOP-62 it was 63.2 µM (inactive); in the experiment with ACHN, > 100 µM (inactive); with OVCAR-5, > 100 µM (inactive); in the experiment on OVCAR-8, 61.7 µM (inactive). The GI50 in the experiment with MOLT-4 is 63.1 µM (inactive); in the experiment on TK-10, > 100 µM (inactive); in the experiment with NCI-H226 it was 92.3 µM (inactive); with Hs-578T, > 100 µM (inactive); in the experiment with IGROV-1 it was 36.3 µM (inactive); in the experiment with SN12C, > 100 µM (inactive). Besides, the GI50 is > 100 µM (inactive) in the experiment with MDA-N; > 100 µM (inactive) in the experiment on U-251; 69.7 µM (inactive) in the experiment on MCF7; 83 µM (inactive) in the experiment with RXF 393; > 100 µM (inactive) in the experiment on NCI-H23; > 100 µM (inactive) with SF-268. The GI50 in the experiment on SK-MEL-5 and in the experiment with COLO 205 was > 100 µM (inactive) throughout.
In the case of `O=c1cc(O)c2ccccc2o1` [4-HYDROXYCOUMARINS], the GI50 in the experiment on LOX IMVI, with A549, in the experiment on HOP-62, in the experiment with ACHN, in the experiment on OVCAR-5 and with OVCAR-8 was > 100 µM (inactive) throughout. Moreover, the GI50 with MOLT-4, in the experiment on TK-10, with NCI-H226, in the experiment with Hs-578T, in the experiment on IGROV-1 and with SN12C was > 100 µM (inactive) in each case. The GI50 in the experiment with MDA-N, in the experiment on U-251, in the experiment on MCF7, in the experiment on RXF 393, in the experiment with NCI-H23 and in the experiment with SF-268 was > 100 µM (inactive) in each case. The GI50 in the experiment with SK-MEL-5 and in the experiment with COLO 205 was > 100 µM (inactive) each time.
With `COc1ccc(C2CC(c3c(O)ccc4ccccc34)=NN2c2ccc([N+](=O)[O-])cc2[N+](=O)[O-])cc1OC` (stereo not given), the GI50 is 25.9 µM (inactive) in the experiment with LOX IMVI; 17.1 µM (inactive) in the experiment with A549; 21.5 µM (inactive) with HOP-62; 18.5 µM (inactive) in the experiment with ACHN; 24.3 µM (inactive) with OVCAR-5; 5.32 µM (inactive) in the experiment with OVCAR-8. In addition, the GI50 in the experiment with MOLT-4 is 4.78 µM (inactive); in the experiment with TK-10, 24.3 µM (inactive); in the experiment on NCI-H226, 13.9 µM (inactive); with Hs-578T it was 19.4 µM (inactive); in the experiment with IGROV-1, 13 µM (inactive); in the experiment on SN12C, 29.8 µM (inactive). Moreover, the GI50 is 28.9 µM (inactive) in the experiment with MDA-N; 17.6 µM (inactive) with U-251; 17.9 µM (inactive) in the experiment on MCF7; 24.4 µM (inactive) with RXF 393; 6.82 µM (inactive) in the experiment with NCI-H23; 25.4 µM (inactive) in the experiment on SF-268. The results for the GI50 in the experiment on SK-MEL-5 and with COLO 205 were 10.1 µM (inactive) and 22.3 µM (inactive), respectively.
On to `CCOC(=O)c1ccc(C(=O)OCC)n1-c1cc2cc(c1)CSCc1cc(cc(-n3c(C(=O)OCC)ccc3C(=O)OCC)c1)CSC2`, for which the GI50 in the experiment on LOX IMVI, in the experiment with A549, in the experiment on HOP-62, in the experiment on ACHN, with OVCAR-5 and with OVCAR-8 was > 10 µM (inactive) throughout. Further, the GI50 in the experiment with MOLT-4, in the experiment on TK-10, with NCI-H226, with Hs-578T, in the experiment on IGROV-1 and in the experiment on SN12C was > 10 µM (inactive) each time. The GI50 in the experiment on MDA-N, in the experiment on U-251, in the experiment with MCF7, in the experiment on RXF 393, in the experiment on NCI-H23 and in the experiment on SF-268 was > 10 µM (inactive) in each case. Besides, the GI50 in the experiment on SK-MEL-5 and in the experiment with COLO 205 was > 10 µM (inactive) in each case.
With `CSC1(SC)N2Cc3ccccc3N=C2C1(c1ccccc1)c1ccccc1`, the GI50 in the experiment with LOX IMVI is 12.3 µM (inactive); in the experiment with A549 it was 13.8 µM (inactive); with HOP-62, > 44.9 µM (inactive); in the experiment on ACHN it was 14.1 µM (inactive); in the experiment with OVCAR-5, > 40.1 µM (inactive); in the experiment on OVCAR-8, 29.2 µM (inactive). The GI50 in the experiment on MOLT-4 is 2.77 µM (inactive); in the experiment on TK-10, > 35.1 µM (inactive); in the experiment on NCI-H226, > 100 µM (inactive); in the experiment on Hs-578T it was 29 µM (inactive); with IGROV-1 it was 24.2 µM (inactive); with SN12C it was 20.5 µM (inactive). Further, the GI50 in the experiment on MDA-N is 12.5 µM (inactive); in the experiment on U-251, 15.1 µM (inactive); in the experiment on MCF7, 8.17 µM (inactive); in the experiment on RXF 393, 9.82 µM (inactive); in the experiment with NCI-H23 it was 16 µM (inactive); in the experiment with SF-268, 21.3 µM (inactive). Besides, the GI50 in the experiment on SK-MEL-5 is 11.4 µM (inactive); in the experiment on COLO 205, 5.89 µM (inactive).
`COc1ccc(/C=C/c2cnc3ccccc3n2)cc1OC`: the GI50 in the experiment on LOX IMVI is 83.8 µM (inactive); with A549 it was 42.6 µM (inactive); in the experiment on HOP-62, 68.1 µM (inactive); in the experiment on ACHN, > 100 µM (inactive); with OVCAR-5, > 100 µM (inactive); in the experiment with OVCAR-8 it was 41.7 µM (inactive). The GI50 in the experiment with MOLT-4 is > 100 µM (inactive); in the experiment with TK-10, > 100 µM (inactive); in the experiment on NCI-H226, > 100 µM (inactive); with Hs-578T, 89.3 µM (inactive); in the experiment with IGROV-1, > 100 µM (inactive); in the experiment on SN12C, 52.7 µM (inactive). The GI50 with MDA-N was 59 µM (inactive); with U-251 it was 80.2 µM (inactive); with MCF7 it was 54.5 µM (inactive); in the experiment with RXF 393, > 100 µM (inactive); in the experiment on NCI-H23, 67.8 µM (inactive); with SF-268, > 100 µM (inactive). The GI50 is 49.3 µM (inactive) with SK-MEL-5 and 72.1 µM (inactive) with COLO 205.
For the molecule `C=COC(=O)N[C@H]1CCc2cc(OC)c(OC)c(OC)c2-c2ccc(SC)c(=O)cc21`, the GI50 is < 0.01 µM (active) in the experiment with LOX IMVI; < 0.01 µM (active) with A549; < 0.0157 µM (active) with HOP-62; < 0.01 µM (active) with ACHN; 0.173 µM (active) with OVCAR-5; 0.0133 µM (active) in the experiment on OVCAR-8. In addition, the GI50 with MOLT-4 is < 0.01 µM (active); in the experiment on TK-10, 0.177 µM (active); in the experiment with NCI-H226 it was 0.0372 µM (active); in the experiment on Hs-578T, < 0.01 µM (active); in the experiment on IGROV-1, < 0.01 µM (active); in the experiment on SN12C it was < 0.01 µM (active). The GI50 with MDA-N is < 0.01 µM (active); in the experiment with U-251 it was < 0.01 µM (active); with MCF7, < 0.0136 µM (active); in the experiment on RXF 393, < 0.0176 µM (active); with NCI-H23 it was < 0.01 µM (active); in the experiment on SF-268, < 0.01 µM (active). Also, the GI50 with SK-MEL-5 and in the experiment on COLO 205 was < 0.01 µM (active) each time.
In the case of `COC(=O)C1=C(C)NC(C)=C([N+](=O)[O-])C1c1cccc(NO)c1` (stereo not given), the GI50 with LOX IMVI is 3.5 µM (inactive); in the experiment on A549, 3.86 µM (inactive); with HOP-62, 9.44 µM (inactive); in the experiment on ACHN it was 3.1 µM (inactive); in the experiment on OVCAR-5, 14.7 µM (inactive); with OVCAR-8, 5.81 µM (inactive). Besides, the GI50 was 3.46 µM (inactive) in the experiment on MOLT-4; 5.12 µM (inactive) with TK-10; 7.28 µM (inactive) in the experiment on NCI-H226; 2.84 µM (inactive) with Hs-578T; 5.01 µM (inactive) in the experiment with IGROV-1; 4.75 µM (inactive) in the experiment with SN12C. The GI50 was 1.79 µM (inactive) with MDA-N; 5.22 µM (inactive) in the experiment with U-251; 3.94 µM (inactive) in the experiment with MCF7; 6.5 µM (inactive) in the experiment on RXF 393; 4.94 µM (inactive) in the experiment on NCI-H23; 6.01 µM (inactive) in the experiment with SF-268. For the same molecule, the GI50 was 2.72 µM (inactive) in the experiment with SK-MEL-5 and 2.06 µM (inactive) in the experiment with COLO 205.
For the molecule `COc1ccc(/C=C2\NC(=S)N(/C=C3\C(=O)Oc4ccccc4C3=O)C2=O)cc1OC`, the GI50 was > 100 µM (inactive) in the experiment on LOX IMVI; > 100 µM (inactive) in the experiment on A549; > 100 µM (inactive) in the experiment with HOP-62; 91 µM (inactive) in the experiment with ACHN; > 100 µM (inactive) with OVCAR-5; > 100 µM (inactive) with OVCAR-8. Further, the GI50 in the experiment with MOLT-4 is > 100 µM (inactive); in the experiment with TK-10, > 100 µM (inactive); in the experiment on NCI-H226, > 100 µM (inactive); with Hs-578T, 87.5 µM (inactive); in the experiment with IGROV-1 it was 78.3 µM (inactive); with SN12C it was > 100 µM (inactive). Also, the GI50 with MDA-N is > 100 µM (inactive); in the experiment on U-251, > 100 µM (inactive); in the experiment with MCF7, > 100 µM (inactive); in the experiment on RXF 393, 77.6 µM (inactive); with NCI-H23, > 100 µM (inactive); in the experiment with SF-268, > 100 µM (inactive). For the same molecule, the GI50 in the experiment on SK-MEL-5 and in the experiment with COLO 205 was > 100 µM (inactive) each time.
For `O=C1O[C@H]2C3C4CCC(C4[C@@H]2I)[C@H]13` (stereo not given in full), the GI50 in the experiment with LOX IMVI, with A549, in the experiment on HOP-62, with ACHN, with OVCAR-5 and in the experiment with OVCAR-8 was > 100 µM (inactive) each time. Moreover, the GI50 in the experiment on MOLT-4, with TK-10, with NCI-H226, with Hs-578T, in the experiment with IGROV-1 and with SN12C was > 100 µM (inactive) in each case. Also, the GI50 in the experiment with MDA-N, in the experiment with U-251, in the experiment on MCF7, with RXF 393, in the experiment with NCI-H23 and with SF-268 was > 100 µM (inactive) each time. Further, the GI50 with SK-MEL-5 and in the experiment on COLO 205 was > 100 µM (inactive) in each case.
